Data set [1] can be described thus: Determination of metabolic stability with human liver microsomes. As to conditions: pH 7.6; pooled human liver microsomes, 1 mg/ml protein, 1 μM compound, 37° C., NADPH; read-out: In vitro stability in human liver microsome incubations t1/2. Format: in vitro ADME. As to the method: Determination of Metabolic Stability with Human Liver Microsomes
The metabolic degradation of the test compound is assayed at 37° C. with pooled human liver microsomes. The final incubation volume of 100 μl per time point contains TRIS buffer pH 7.6 (0.1 M), magnesium chloride (5 mM), microsomal protein (1 mg/ml) and the test compound at a final concentration of 1 μM. Following a short preincubation period at 37° C., the reactions are initiated by addition of beta-nicotinamide adenine dinucleotide phosphate, reduced form (NADPH, 1 mM) and terminated by transferring an aliquot into acetonitrile after different time points. Additionally, the NADPH-independent degradation is monitored in incubations without NADPH, terminated at the last time point. The [%] remaining test compound after NADPH independent incubation is reflected by the parameter c (control) (metabolic stability). The quenched incubations are pelleted by centrifugation (10′000 g, 5 min.) An aliquot of the supernatant is assayed by LC-MS/MS for the amount of parent compound.
The half-life (t1/2 INVITRO) is determined by the slope of the semilogarithmic plot of the concentration-time profile. The intrinsic clearance (CL_INTRINSIC) is calculated by considering the amount of protein in the incubation: CL_INTRINSIC [μl/min/mg protein]=(ln 2/(half-life [min]*protein content [mg/ml]))*1′000.
On the technique in general: Microsomes from liver hold many membrane-bound enzymes, among them those of drug oxidation.

Data set [2] has as its target recombinant human DPPI (Cathepsin C) (Homo sapiens (Human), UniProt P53634). In words: Inhibition of human DPPI (Cathepsin C). Format: biochemical. As to the method:
Inhibition of Human DPPI (Cathepsin C)
The analysis of the data was performed by calculating the percentage of fluorescence in the presence of test compound in comparison to the fluorescence of the vehicle control after 20 subtracting the background fluorescence using the following formula: (RFU(sample)−RFU(background))*100/(RFU(control)−RFU(background))
Data from these calculations were used to generate IC50 values for inhibition of DPPI, respectively.

Data set [3] deals with neutrophil elastase activity in U937 cells. In words: Determination of neutrophil elastase activity in U937 cytosolic lysate preparation after incubation with test compound. Format: cell-based. As to conditions: Homo sapiens, U-937; U937 cells incubated 48 hours with compound, NE activity in lysate; read-out: Reduction of NE-activity in U937 cells IC50. As to the method:
Determination of Neutrophil Elastase Activity in U937 Cytosolic Lysate Preparation after Incubation with Test Compound Materials:
24 well Nunclon cell culture plates (No. 142475) and 96 well plates (No. 267245) were from Nunc.
Dimethylsulfoxid (DMSO) was from Sigma (Prod. No. D8418). Nonidet-P40 (NP40) was from USBiological (Prod. No. N3500)
Substrate, specific for Neutrophil elastase, was from Bachem (MeOSuc-Ala-Ala-Pro-Val-AMC; Prod. No. I-1270).
Human neutrophil elastase was from Calbiochem (Prod. No. 324681)
Tris-buffer (100 mM Tris; 1M NaCl; pH 7.5)
Tris-buffer+HSA 0.1%; Human Serum Albumin from Calbiochem (Cat#. 126658)
Serine-protease buffer (20 mM Tris; 100 mM NaCl; pH 7.5)+0.1% HSA
Serine protease lysis buffer: 20 mM Tris-HCl; 100 mM NaCl pH 7.5; +0.2% Nonidet-P40;
PBS: phosphate buffered saline, without Ca and Mg, from Gibco
U937 from ECACC (Cat. No. 85011440) cultured in suspension at 37° C. and 5% CO2.
Cell density: 0.2-1 Mio. Cells/ml.
Medium: RPMI1640 GlutaMAX (No. 61870) with 10% FCS from Gibco
Cell Seeding and Treatment:
Compounds in 100% DMSO were diluted in Medium (−FCS) with 10% DMSO and further diluted according to the experiment planned.
20 μl of the compound solution was transferred in the respective wells of the 24 well plate and diluted with 2 ml cell suspension/well containing 1×10^5 cells/ml (final concentration of DMSO=0.1%). Compound dilution factor=100
Compounds (up to 7 concentrations) were tested in triplicates with 3 wells for the DMSO 0.1% control, incubated for 48 hours without medium change at 37° C., 5% CO2 and 95% relative humidity.
Cell Harvesting and Cell Lysate:
Transfer the cell suspension in 2 ml 96 well assay block. Separate cells from medium by centrifugation (500×g; 10 min; RT); discard the supernatant. Resuspend in 1 ml PBS; centrifugation (500×g; 10 min; RT); wash cells twice with PBS. Add 80 μl Serine protease lysis buffer (ice cold) to the cell pellet; resuspend the pellet and store on ice for 10 minutes. Remove debris by centrifugation at 1000×g for 10 min at 4° C. Transfer 80-100 μl lysate supernatant in 96 well plate and store immediately at −80° C.
Neutrophil Elastase Activity Assay:
Frozen lysates were thaw at 37° C. for 10 minutes and stored on ice. Protein content was determined with Bradford protein assay. Lysates were diluted to 0.2-0.5 mg/ml protein in serine protease buffer+HSA.
Standard: NE (100 μg/ml stock solution in Tris-buffer; stored at −80° C.) was diluted in Tris-buffer+HSA to 750 ng/ml, and further serially diluted 1:2 for the standard curve. Buffer, blank, standard and lysate samples were transferred into 384 well plate
Blank: 5 μl Tris-buffer+10 μl Serine protease buffer+5 μl Substrate
Standard: 5 μl Tris-buffer+10 μl NE (diff. conc.)+5 μl Substrate
Lysate: 5 μl Tris-buffer+10 μl Lysat+5 μl Substrate
The increase in fluorescence (Ex360 nm/Em 460 nm) is determined after 30 minutes with a Molecular Device Spectramax M5 Fluorescence Reader. The result is interpolated to ng/mg lysate protein using excel formula functions. Percent inhibition in the compound-treated lysate samples is calculated relative to the DMSO-treated control-sample (100−(compound-sample*100)/control-sample)
A test compound will give values between 0% and 100% inhibition of neutrophil elastase. IC50 is calculated using Graphpad Prism; nonlinear fitting (log(inhibitor) vs. response—Variable slope). The IC50 value is interpolated as the concentration of test compound which leads to a neutrophil elastase activity reduction of 50% (relative to the DMSO-treated control).

Where [4] appears, read: recombinant human DPPI, substrate Gly-Arg-AMC, pH 6.0, read-out: Inhibition of DPPI IC50.
Setting [5] is: Table 14, compounds examined in X-ray crystallography, read-out: CatC IC50.

The record followed here is patent US9540373B2, “Substituted spirocycles” (Boehringer Ingelheim International GmbH, priority 2014, dated 2017).

Where two headings read alike, the source gives them in different places.

recombinant human DPPI (Cathepsin C), sequence (P53634 231-394): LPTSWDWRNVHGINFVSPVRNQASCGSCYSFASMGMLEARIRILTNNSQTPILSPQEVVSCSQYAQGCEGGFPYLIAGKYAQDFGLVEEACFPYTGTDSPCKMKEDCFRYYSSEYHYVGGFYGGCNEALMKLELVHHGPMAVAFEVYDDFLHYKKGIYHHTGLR
recombinant human DPPI (Cathepsin C), sequence (P53634 25-134): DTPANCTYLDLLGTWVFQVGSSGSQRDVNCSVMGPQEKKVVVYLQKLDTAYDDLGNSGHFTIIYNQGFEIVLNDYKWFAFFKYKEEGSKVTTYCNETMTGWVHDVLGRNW
recombinant human DPPI (Cathepsin C), sequence (P53634 395-463): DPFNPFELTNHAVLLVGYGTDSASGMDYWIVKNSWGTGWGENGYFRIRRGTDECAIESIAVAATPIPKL

Take `N#C[C@H](Cc1ccc(-c2ccc3c(c2)C2(CCNCC2)CC3)cc1F)NC(=O)[C@H]1N[C@@H]2CC[C@H]1C2` [Example 2]: in data set [1], the half-life at 1 μM is above 2.17 h. In addition, the results for the IC50 in data set [2] (setting [4]) and in data set [3] were 0.6 nM and 6.8 nM, respectively.
In the case of `N#C[C@H](Cc1ccc(-c2ccc3c(c2)C2(CCNCC2)C(=O)N3)cc1F)NC(=O)[C@H]1N[C@@H]2CC[C@H]1C2` [Example 3], the half-life at 1 μM in data set [1] is above 2.17 h. Also, the IC50 – broadly, the concentration needed to halve the response being measured – in data set [2] (setting [4]) is 0.3 nM; in data set [3] it was 503 nM.
On the same counts, the results for `CN1C(=O)C2(CCNCC2)c2cc(-c3ccc(C[C@@H](C#N)NC(=O)[C@H]4N[C@@H]5CC[C@H]4C5)c(F)c3)ccc21` [Example 4] are above 2.17 h, 0.4 nM and 91 nM.
As for `CN1CCC2(CC1)C(=O)N(C)c1ccc(-c3ccc(C[C@@H](C#N)NC(=O)[C@H]4N[C@@H]5CC[C@H]4C5)c(F)c3)cc12` [Example 5], in data set [1], the half-life at 1 μM is above 2.17 h. The IC50 in data set [2] (setting [4]) was 0.6 nM; in data set [3], 2.3 nM.
The corresponding values for `CN1CCC2(CC1)C(=O)Nc1ccc(-c3ccc(C[C@@H](C#N)NC(=O)[C@H]4N[C@@H]5CC[C@H]4C5)c(F)c3)cc12` [Example 6] are 1.83 h, 0.2 nM and 22.2 nM.
The corresponding values for `N#C[C@H](Cc1ccc(-c2ccc3c(c2)C2(CCNCC2)OC3=O)cc1F)NC(=O)[C@H]1N[C@@H]2CC[C@H]1C2` [Example 7] are above 2.17 h, 0.5 nM and 34.9 nM.
On the same counts, the results for `CN1CCC2(CC1)OC(=O)c1ccc(-c3ccc(C[C@@H](C#N)NC(=O)[C@H]4N[C@@H]5CC[C@H]4C5)c(F)c3)cc12` [Example 8] are 1.23 h, 0.7 nM and 0.8 nM.
Turning to `N#C[C@H](Cc1ccc(-c2ccc3c(c2)C2(CCNC2)OC3=O)cc1F)NC(=O)[C@H]1N[C@@H]2CC[C@H]1C2` (some centres unmarked) [Example 9], the half-life at 1 μM in data set [1] was above 2.17 h. Moreover, the IC50 in data set [2] (setting [4]) is 0.5 nM; in data set [3] it was 21.5 nM.
Take `CN1CCC2(C1)OC(=O)c1ccc(-c3ccc(C[C@@H](C#N)NC(=O)[C@H]4N[C@@H]5CC[C@H]4C5)c(F)c3)cc12` (some centres unmarked) [Example 10]: the half-life at 1 μM in data set [1] was above 2.17 h. Besides, the values for the IC50 in data set [2] (setting [4]) and in data set [3] were 0.6 nM and 1.4 nM, respectively.
Take `N#C[C@H](Cc1ccc(-c2ccc3c(c2)C2(CNC2)OC3=O)cc1F)NC(=O)[C@H]1N[C@@H]2CC[C@H]1C2` [Example 11]: the half-life at 1 μM in data set [1] is above 2.17 h. Further, the IC50 worked out at 0.7 nM in data set [2] (setting [5]), 0.7 nM in data set [2] (setting [4]) and 10.7 nM in data set [3].
Consider `CN1CC2(C1)OC(=O)c1ccc(-c3ccc(C[C@@H](C#N)NC(=O)[C@H]4N[C@@H]5CC[C@H]4C5)c(F)c3)cc12` [Example 12], for which the half-life at 1 μM in data set [1] came out at 0.767 h. Also, the IC50 turned out to be 0.5 nM in data set [2] (setting [4]) and 1.2 nM in data set [3].
The corresponding values for `N#C[C@H](Cc1ccc(-c2ccc3c(c2)C2(CCNCC2)OC3)cc1F)NC(=O)[C@H]1N[C@@H]2CC[C@H]1C2` [Example 13] are above 2.17 h, 0.6 nM and 16.7 nM.
The corresponding values for `CN1CCC2(CC1)OCc1ccc(-c3ccc(C[C@@H](C#N)NC(=O)[C@H]4N[C@@H]5CC[C@H]4C5)c(F)c3)cc12` [Example 14] are above 2.17 h, 1 nM and 1.1 nM.
On the same counts, the results for `CN1CCC2(CCc3ccc(-c4ccc(C[C@@H](C#N)NC(=O)[C@H]5N[C@@H]6CC[C@H]5C6)c(F)c4)cc32)CC1` [Example 15] are above 2.17 h, 0.5 nM and 0.2 nM.
As to `N#C[C@H](Cc1ccc(-c2ccc3c(c2)C2(CCNC2)C(=O)N3)cc1F)NC(=O)[C@H]1N[C@@H]2CC[C@H]1C2` (some centres unmarked) [Example 16], in data set [1], the half-life at 1 μM was above 2.17 h. Also, the half-inhibitory concentration (IC50) in data set [2] (setting [5]) was determined as 0.5 nM; in data set [2] (setting [4]) it was 0.5 nM; in data set [3], 73.8 nM.
With `CN1CCCC2(C1)C(=O)N(C)c1ccc(-c3ccc(C[C@@H](C#N)NC(=O)[C@H]4N[C@@H]5CC[C@H]4C5)c(F)c3)cc12` (some centres unmarked) [Example 17], in data set [1], the half-life at 1 μM came to 1 h. Besides, the figures for the IC50 in data set [2] (setting [4]) and in data set [3] were 1.6 nM and 0.6 nM, respectively.
On the same counts, the results for `N#C[C@H](Cc1ccc(-c2cc3c(cn2)C(=O)OC32CCNCC2)cc1F)NC(=O)[C@H]1N[C@@H]2CC[C@H]1C2` [Example 18] are above 2.17 h, 1.6 nM and 220 nM.
On the same counts, the results for `CN1CCC2(CC1)OC(=O)c1cnc(-c3ccc(C[C@@H](C#N)NC(=O)[C@H]4N[C@@H]5CC[C@H]4C5)c(F)c3)cc12` [Example 19] are above 2.17 h, 1 nM and 5 nM.
The corresponding values for `CN1CCC2(C1)OC(=O)c1cnc(-c3ccc(C[C@@H](C#N)NC(=O)[C@H]4N[C@@H]5CC[C@H]4C5)c(F)c3)cc12` (some centres unmarked) [Example 20] are above 2.17 h, 1.6 nM and 23.2 nM.
For the compound `CN1CCC2(CC1)OC(=O)c1ncc(-c3ccc(C[C@@H](C#N)NC(=O)[C@H]4N[C@@H]5CC[C@H]4C5)c(F)c3)cc12` [Example 21], the half-life at 1 μM in data set [1] was above 2.17 h. Moreover, the IC50 in data set [2] (setting [4]) came to 1.4 nM; in data set [3] it was 63.7 nM.
On the same counts, the results for `N#C[C@H](Cc1ccc(-c2cc3c(cn2)C(=O)OC32CCN(C3COC3)CC2)cc1F)NC(=O)[C@H]1N[C@@H]2CC[C@H]1C2` [Example 22] are above 2.17 h, 4.8 nM and 15.7 nM.
